What was measured:
[1] = system: BxPC3-luc, clone 1F11 cells; experiment: Gemcitabine sparing pancreatic cancer model, subcutaneous BxPC3-luc tumors; format: in vivo, female NSG mice; settings: Compound C 10 mg/kg BID s.c., gemcitabine 25 mg/kg QW i.p., day 7 through day 70; FIG. 4
Description: Methods: Pancreatic cancer tumors were generated by subcutaneous injection of 100 μL of BxPC3-luc, clone 1F11 cells (1×10^6) in matrigel into the right flank of female NSG mice. Tumors were allowed to grow for 7 days prior to initiating treatment. At day 7 post-implant, mice were randomized into treatment groups (n=5/group) and treatment was initiated per dose route and regimen as described below:
Gemcitabine (Gem) at a low sensitizing dose was administered 25 mg/kg QW by intraperitoneal route. Compound C was administered 10 mg/kg BID by subcutaneous route. Treatments were administered from day 7 through day 70.
Body weight and tumor volume by caliper was measured weekly. At day 70 imaging was performed by administering 150 mg/kg luciferin and measuring whole body […] by IVIS imaging system. Tumors and organs were then harvested and imaged ex vivo.

P-selectin = experiment: P-selectin-mediated HL-60 cell binding to immobilized P-selectin/Fc chimera; format: cell-based; settings: HL-60 cells, best-fit values
Description: 96 well plates were coated with 10 μg/mL Protein A overnight, then blocked with 2% FBS for 1 hour. 2 μg/mL P-selectin/Fc chimera was bound to the Protein A for 3 hours at 4° C. HL-60 cells (2e5 cells/well, CMFDA labeled) were then layered onto the P-selectin and allowed to bind for 1 hour at room temperature. Wells were treated concurrently with test samples to determine inhibitory binding activity. After 1 hour, unbound cells were washed and bound cells lysed in a 1% Triton-X solution and read on a Fluorimeter at 480/520 nm.

Compound	tumor growth inhibition (tumor volume by caliper) [1]	P-sel IC50 (P-selectin)
Nc1ccn([C@@H]2O[C@H](CO)[C@@H](O)C2(F)F)c(=O)n1 [Gemcitabine]	no effect on tumor growth	
enoxaparin		64.72 µg/mL
